# Test results reported in ChEMBL document CHEMBL1909590, “Design, synthesis and docking studies of new quinoline-3-carbohydrazide derivatives as antitubercular agents” (2011).
# Legend:
# Assay type in all cases: functional
# [1] = system: Escherichia coli; experiment: Antibacterial activity against Escherichia coli ATCC 25922 after 18 to 25 hrs by serial plate dilution method
# [2] = system: Staphylococcus aureus; experiment: Antibacterial activity against Staphylococcus aureus ATCC 25923 after 18 to 25 hrs by serial plate dilution method
# [3] = system: Mycobacterium tuberculosis; experiment: Antimycobacterial activity against Mycobacterium tuberculosis H37Rv ATCC 27294 using compound level ranging from 1 to 100 ug/mL after 7 days by resazurin reduction test; details: H37Rv ATCC 27294, 168 h
# [4] = system: Mycobacterium tuberculosis; experiment: Antimycobacterial activity against Mycobacterium tuberculosis H37Rv ATCC 27294 using compound level ranging from 0.3125 to 5 ug/mL after 7 days by resazurin reduction test; details: H37Rv ATCC 27294, 168 h
# [5] = system: Mycolicibacterium fortuitum; experiment: Antimycobacterial activity against Mycobacterium fortuitum ATCC 19542 using compound level ranging from 1 to 100 ug/mL after 7 days by resazurin reduction test; details: ATCC 19542, 168 h
# [6] = system: Mycobacterium tuberculosis; experiment: Growth inhibition of Mycobacterium tuberculosis H37Rv ATCC 27294 using compound level ranging from 1 to 100 ug/mL after 7 days by resazurin reduction test
# [7] = system: Klebsiella pneumoniae; experiment: Antibacterial activity against Klebsiella pneumoniae clinical isolates after 18 to 25 hrs by serial plate dilution method
# [8] = system: Pseudomonas aeruginosa; experiment: Antibacterial activity against Pseudomonas aeruginosa ATCC 27853 after 18 to 25 hrs by serial plate dilution method
# [9] = system: Mycolicibacterium smegmatis; experiment: Antimycobacterial activity against Mycobacterium smegmatis MC2 ATCC 19420 using compound level ranging from 1 to 100 ug/mL after 7 days by resazurin reduction test; details: MC2 ATCC 19420, 168 h
# [10] = system: Streptococcus pyogenes; experiment: Antibacterial activity against Streptococcus pyogenes clinical isolate after 18 to 25 hrs by serial plate dilution method
# [11] = system: Mycolicibacterium fortuitum; experiment: Antimycobacterial activity against Mycobacterium fortuitum ATCC 19542 using compound level ranging from 0.3125 to 5 ug/mL after 7 days by resazurin reduction test; details: ATCC 19542, 168 h
# [12] = system: Mycolicibacterium smegmatis; experiment: Antimycobacterial activity against Mycobacterium smegmatis MC2 ATCC 19420 using compound level ranging from 0.3125 to 5 ug/mL after 7 days by resazurin reduction test; details: MC2 ATCC 19420, 168 h
Structure (SMILES),MIC [1],MIC [2],MIC [3],MIC [4],MIC [5],growth inhibition (GI) [6],MIC [7],MIC [8],MIC [9],MIC [10],MIC [11],MIC [12]
COc1ccc(NC(=S)NNC(=O)c2cnc3c(C(F)(F)F)cccc3c2O)cc1,6.25 µg/mL,1.6 µg/mL,10 µg/mL,5 µg/mL,> 100 µg/mL,<90%,3.12 µg/mL,1.6 µg/mL,> 100 µg/mL,0.8 µg/mL,–,–
COc1ccc2[nH]cc(/C=N/NC(=O)c3cnc4c(C(F)(F)F)cccc4c3O)c2c1,0.1 µg/mL,0.8 µg/mL,1 µg/mL,0.625 µg/mL,10 µg/mL,95%,0.1 µg/mL,0.4 µg/mL,10 µg/mL,0.4 µg/mL,10 µg/mL,10 µg/mL
COc1ccc(NC(=O)NNC(=O)c2cnc3c(C(F)(F)F)cccc3c2O)cc1,0.1 µg/mL,0.8 µg/mL,1 µg/mL,1.25 µg/mL,10 µg/mL,90%,0.1 µg/mL,0.4 µg/mL,10 µg/mL,0.4 µg/mL,12.5 µg/mL,10 µg/mL
CO[C@H]1/C=C/O[C@@]2(C)Oc3c(C)c(O)c4c(O)c(c(/C=N/N5CCN(C)CC5)c(O)c4c3C2=O)NC(=O)/C(C)=C\C=C\[C@H](C)[C@H](O)[C@@H](C)[C@@H](O)[C@@H](C)[C@H](OC(C)=O)[C@@H]1C [RIFAMPIN],–,–,0.5 µg/mL,0.5 µg/mL,1.5 µg/mL,95%,–,–,1.5 µg/mL,–,1.5 µg/mL,1.5 µg/mL
O=C(NNC(=O)c1cnc2c(C(F)(F)F)cccc2c1O)Nc1cccc(Cl)c1,3.12 µg/mL,0.8 µg/mL,10 µg/mL,10 µg/mL,> 100 µg/mL,<90%,0.8 µg/mL,1.6 µg/mL,> 100 µg/mL,0.4 µg/mL,–,–
COc1ccc(/C=N/NC(=O)c2cnc3c(C(F)(F)F)cccc3c2O)cc1O,12.5 µg/mL,1.6 µg/mL,10 µg/mL,10 µg/mL,> 100 µg/mL,<90%,12.5 µg/mL,6.25 µg/mL,> 100 µg/mL,1.6 µg/mL,–,–
O=C(NNC(=S)Nc1cccnc1)c1cnc2c(C(F)(F)F)cccc2c1O,3.12 µg/mL,6.25 µg/mL,> 100 µg/mL,–,> 100 µg/mL,0%,6.25 µg/mL,12.5 µg/mL,> 100 µg/mL,12.5 µg/mL,–,–
O=C(N/N=C/c1cc(F)ccc1O)c1cnc2c(C(F)(F)F)cccc2c1O,0.1 µg/mL,0.8 µg/mL,10 µg/mL,2.5 µg/mL,10 µg/mL,<90%,0.1 µg/mL,0.4 µg/mL,10 µg/mL,0.8 µg/mL,10 µg/mL,10 µg/mL
O=C(N/N=C/c1ccncc1)c1cnc2c(C(F)(F)F)cccc2c1O,12.5 µg/mL,6.25 µg/mL,> 100 µg/mL,–,> 100 µg/mL,0%,6.25 µg/mL,12.5 µg/mL,> 100 µg/mL,12.5 µg/mL,–,–
CSc1ccccc1/C=N/NC(=O)c1cnc2c(C(F)(F)F)cccc2c1O,6.25 µg/mL,1.6 µg/mL,> 100 µg/mL,–,> 100 µg/mL,0%,3.12 µg/mL,3.12 µg/mL,> 100 µg/mL,3.12 µg/mL,–,–
O=C(N/N=C/c1ccc(OC(F)(F)C(F)F)cc1)c1cnc2c(C(F)(F)F)cccc2c1O,6.25 µg/mL,3.12 µg/mL,10 µg/mL,5 µg/mL,> 100 µg/mL,<90%,3.12 µg/mL,6.25 µg/mL,10 µg/mL,12.5 µg/mL,–,10 µg/mL
Cn1cccc1/C=N\NC(=O)c1cnc2c(C(F)(F)F)cccc2c1O,0.1 µg/mL,0.8 µg/mL,1 µg/mL,0.625 µg/mL,10 µg/mL,90%,0.1 µg/mL,0.4 µg/mL,1 µg/mL,0.4 µg/mL,10 µg/mL,1.25 µg/mL
Cc1[nH]cnc1/C=N/NC(=O)c1cnc2c(C(F)(F)F)cccc2c1O,0.4 µg/mL,0.8 µg/mL,1 µg/mL,1.25 µg/mL,10 µg/mL,90%,0.1 µg/mL,0.4 µg/mL,1 µg/mL,1.6 µg/mL,12.5 µg/mL,1.25 µg/mL
Cc1ccc(/C=N/NC(=O)c2cnc3c(C(F)(F)F)cccc3c2O)cc1,3.12 µg/mL,1.6 µg/mL,10 µg/mL,10 µg/mL,> 100 µg/mL,<90%,0.8 µg/mL,3.12 µg/mL,> 100 µg/mL,3.12 µg/mL,–,–
O=C(N/N=C/c1ccc2c(c1)CCO2)c1cnc2c(C(F)(F)F)cccc2c1O,12.5 µg/mL,1.6 µg/mL,> 100 µg/mL,–,> 100 µg/mL,0%,6.25 µg/mL,3.12 µg/mL,> 100 µg/mL,3.12 µg/mL,–,–
O=C(NNC(=S)Nc1cccc(Cl)c1)c1cnc2c(C(F)(F)F)cccc2c1O,3.12 µg/mL,0.8 µg/mL,10 µg/mL,2.5 µg/mL,> 100 µg/mL,<90%,3.12 µg/mL,3.12 µg/mL,10 µg/mL,1.6 µg/mL,–,2.5 µg/mL
O=C(NNC(=S)Nc1ccccc1F)c1cnc2c(C(F)(F)F)cccc2c1O,0.1 µg/mL,0.8 µg/mL,1 µg/mL,0.625 µg/mL,10 µg/mL,95%,0.1 µg/mL,0.4 µg/mL,10 µg/mL,0.4 µg/mL,10 µg/mL,10 µg/mL
CCc1ccc(NC(=O)NNC(=O)c2cnc3c(C(F)(F)F)cccc3c2O)cc1,3.12 µg/mL,6.25 µg/mL,10 µg/mL,12.5 µg/mL,> 100 µg/mL,<90%,6.25 µg/mL,12.5 µg/mL,> 100 µg/mL,12.5 µg/mL,–,–
NNC(=O)c1ccncc1 [ISONIAZID],–,–,0.7 µg/mL,0.7 µg/mL,12.5 µg/mL,95%,–,–,50 µg/mL,–,12.5 µg/mL,50 µg/mL
Cn1nnc2cc(/C=N\NC(=O)c3cnc4c(C(F)(F)F)cccc4c3O)ccc21,0.4 µg/mL,0.8 µg/mL,10 µg/mL,5 µg/mL,> 100 µg/mL,<90%,0.8 µg/mL,1.6 µg/mL,> 100 µg/mL,0.4 µg/mL,–,–
Cc1ccc(NC(=O)NNC(=O)c2cnc3c(C(F)(F)F)cccc3c2O)cc1,0.2 µg/mL,0.8 µg/mL,1 µg/mL,1.25 µg/mL,10 µg/mL,90%,0.1 µg/mL,0.8 µg/mL,10 µg/mL,0.4 µg/mL,10 µg/mL,10 µg/mL
O=C(N/N=C/c1cnc[nH]1)c1cnc2c(C(F)(F)F)cccc2c1O,0.2 µg/mL,0.8 µg/mL,1 µg/mL,1.25 µg/mL,10 µg/mL,90%,0.4 µg/mL,0.8 µg/mL,> 1000 µg/mL,0.4 µg/mL,10 µg/mL,–
COC(=O)Cc1cc(/C=N/NC(=O)c2cnc3c(C(F)(F)F)cccc3c2O)co1,3.12 µg/mL,6.25 µg/mL,10 µg/mL,5 µg/mL,> 100 µg/mL,<90%,6.25 µg/mL,12.5 µg/mL,> 100 µg/mL,12.5 µg/mL,–,–
Cc1ccc(NC(=S)NNC(=O)c2cnc3c(C(F)(F)F)cccc3c2O)cc1,12.5 µg/mL,1.6 µg/mL,> 100 µg/mL,–,> 100 µg/mL,0%,12.5 µg/mL,6.25 µg/mL,> 100 µg/mL,3.12 µg/mL,–,–
COc1ccc(/C=N/NC(=O)c2cnc3c(C(F)(F)F)cccc3c2O)cc1,0.4 µg/mL,0.8 µg/mL,1 µg/mL,1.25 µg/mL,10 µg/mL,90%,0.8 µg/mL,0.8 µg/mL,10 µg/mL,0.4 µg/mL,10 µg/mL,10 µg/mL
Cc1cc(C)cc(NC(=O)NNC(=O)c2cnc3c(C(F)(F)F)cccc3c2O)c1,3.12 µg/mL,0.8 µg/mL,10 µg/mL,2.5 µg/mL,> 100 µg/mL,<90%,3.12 µg/mL,3.12 µg/mL,> 100 µg/mL,1.6 µg/mL,–,–
O=C(O)c1cn(C2CC2)c2cc(N3CCNCC3)c(F)cc2c1=O [CIPROFLOXACIN],–,1 µg/mL,–,–,–,–,–,0.4 µg/mL,–,–,–,–
